Source: US12479830B2, “Homopiperazinyl and homopiperidinyl quinazolin-4(3H)-one derivatives having multimodal activity against pain” (ESTEVE PHARMACEUTICALS, S.A., priority 2019, dated 2025)

How the values were obtained:
[1] = target: Human α2δ-1 subunit of Cav2.2 calcium channel (Homo sapiens, UniProt P54289); test: Human α2δ-1 subunit of Cav2.2 calcium channel assay ([3H]-gabapentin binding); details: binding to the α2δ-1 subunit of voltage-gated calcium channels, expressed as Ki class; + also covers inhibition between 1% and 50%
Sequence of Human α2δ-1 subunit of Cav2.2 calcium channel (P54289 25-1103): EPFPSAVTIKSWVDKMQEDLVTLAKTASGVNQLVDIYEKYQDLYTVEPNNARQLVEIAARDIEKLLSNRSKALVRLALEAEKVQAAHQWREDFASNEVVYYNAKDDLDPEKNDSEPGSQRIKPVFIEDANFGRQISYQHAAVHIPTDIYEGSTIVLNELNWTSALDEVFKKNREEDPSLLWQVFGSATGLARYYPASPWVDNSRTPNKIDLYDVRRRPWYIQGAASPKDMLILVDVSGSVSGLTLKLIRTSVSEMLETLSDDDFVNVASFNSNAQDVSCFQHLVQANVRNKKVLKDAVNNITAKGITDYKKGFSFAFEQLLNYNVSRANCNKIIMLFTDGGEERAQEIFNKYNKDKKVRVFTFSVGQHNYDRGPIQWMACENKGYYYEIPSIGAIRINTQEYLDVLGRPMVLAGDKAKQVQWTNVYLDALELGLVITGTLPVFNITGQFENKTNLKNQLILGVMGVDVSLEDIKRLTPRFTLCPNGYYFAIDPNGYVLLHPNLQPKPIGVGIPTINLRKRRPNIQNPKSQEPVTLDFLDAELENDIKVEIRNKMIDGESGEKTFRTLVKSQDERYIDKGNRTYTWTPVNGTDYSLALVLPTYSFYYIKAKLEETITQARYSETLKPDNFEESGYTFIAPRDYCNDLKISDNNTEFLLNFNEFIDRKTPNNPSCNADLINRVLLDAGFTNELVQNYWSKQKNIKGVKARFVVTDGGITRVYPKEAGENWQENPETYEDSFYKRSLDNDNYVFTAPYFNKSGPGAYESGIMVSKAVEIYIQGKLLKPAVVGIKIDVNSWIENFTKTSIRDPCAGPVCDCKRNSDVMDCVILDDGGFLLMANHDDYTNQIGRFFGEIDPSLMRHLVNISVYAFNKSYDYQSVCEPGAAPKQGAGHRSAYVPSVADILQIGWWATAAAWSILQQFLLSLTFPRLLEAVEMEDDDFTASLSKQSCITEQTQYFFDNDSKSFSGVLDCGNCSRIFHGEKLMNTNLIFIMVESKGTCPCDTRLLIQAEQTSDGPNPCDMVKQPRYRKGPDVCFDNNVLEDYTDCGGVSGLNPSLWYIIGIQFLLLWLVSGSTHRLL
Description: Human α2δ-1 Subunit of Cav2.2 Calcium Channel Assay
Human α2δ-1 enriched membranes (2.5 μg) were incubated with 15 nM of radiolabeled [^3H]-Gabapentin in assay buffer containing Hepes-KOH 10 mM. pH 7.4. NSB (non specific binding) was measured by adding 10 μM pregabalin. The binding of the test compound was measured at either one concentration (% inhibition at 1 or 10 μM) or five different concentrations to determine affinity values (Ki). After 60 min incubation at 27° C., binding reaction was terminated by filtering through Multiscreen GF/C (Millipore) presoaked in 0.5% polyethyleneimine in Vacuum Manifold Station, followed by 3 washes with ice-cold filtration buffer containing 50 mM Tris-HCl, pH 7.4. Filter plates were dried at 60° C. for 1 h and 30 μL of scintillation cocktail were added to each well before radioactivity reading. Readings were performed in a Trilux 1450 Microbeta radioactive counter (Perkin Elmer).

Human σ1 receptor = target: T1, Human σ1 receptor (Homo sapiens, UniProt Q99720); test: Human σ1 receptor radioligand assay ([3H](+)-pentazocine binding); details: binding to the σ1 receptor, expressed as Ki class; + also covers inhibition between 1% and 50%
T1 construct: expressed in transfected cells; host or cells: HEK-293
T1 sequence (Q99720 whole entry): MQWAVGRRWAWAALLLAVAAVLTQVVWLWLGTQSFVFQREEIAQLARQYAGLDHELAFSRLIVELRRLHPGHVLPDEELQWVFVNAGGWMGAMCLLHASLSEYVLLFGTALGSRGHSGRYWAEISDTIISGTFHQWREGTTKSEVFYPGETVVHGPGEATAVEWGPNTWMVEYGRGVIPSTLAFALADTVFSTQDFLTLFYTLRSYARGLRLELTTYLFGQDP
Description: Human σ1 Receptor Radioligand Assay
Transfected HEK-293 membranes (7 μg) were incubated with 5 nM of [^3H](+)-pentazocine in assay buffer containing Tris-HCl 50 mM at pH 8. NBS (non-specific binding) was measured by adding 10 μM haloperidol. The binding of the test compound was measured at either one concentration (% inhibition at 1 or 10 μM) or five different concentrations to determine affinity values (Ki). Plates were incubated at 37° C. for 120 minutes. After the incubation period, the reaction mix was then transferred to MultiScreen HTS, FC plates (Millipore), filtered and plates were washed 3 times with ice-cold 10 mM Tris-HCL (pH7.4). Filters were dried and counted at approximately 40% efficiency in a MicroBeta scintillation counter (Perkin-Elmer) using EcoScint liquid scintillation cocktail.

| Compound | Ki [1] [nM] | Ki (Human σ1 receptor) [nM] |
| --- | --- | --- |
| CCCC(c1nc2cc(C)c(Br)cc2c(=O)n1CC)N1CCCNCC1 (centres unmarked) [Example 44, 2-(1-(1,4-diazepan-1-yl)butyl)-6-bromo-3-ethyl-7-methylquinazolin-4(3H)-one] | < 500 | > 1000 |
| CCCC(c1nc2cc(F)c(F)cc2c(=O)n1CC)N1CCCNCC1 (centres unmarked) [Example 45, 2-(1-(1,4-diazepan-1-yl)butyl)-3-ethyl-6,7-difluoroquinazolin-4(3H)-one] | < 500 | > 1000 |
| CCCC(c1nc2cc(F)c(F)cc2c(=O)n1CC)N1CCCN(CC)CC1 (centres unmarked) [Example 46, 3-ethyl-2-(1-(4-ethyl-1,4-diazepan-1-yl)butyl)-6,7-difluoroquinazolin-4(3H)-one] | < 500 | < 500 |
| CCCC(c1nc2ccc(Br)c(C)c2c(=O)n1CC)N1CCCN(CC)CC1 (centres unmarked) [Example 47, 6-bromo-3-ethyl-2-(1-(4-ethyl-1,4-diazepan-1-yl)butyl)-5-methylquinazolin-4(3H)-one] | 500 to 5000 | < 500 |
| CCCC(c1nc2cc(C)c(Br)cc2c(=O)n1CC)N1CCCN(CC)CC1 (centres unmarked) [Example 48, 6-bromo-3-ethyl-2-(1-(4-ethyl-1,4-diazepan-1-yl)butyl)-7-methylquinazolin-4(3H)-one] | < 500 | < 500 |
| CCCC(c1nc2c(Cl)cc(Br)cc2c(=O)n1CC)N1CCCN(C)CC1 (centres unmarked) [Example 49, 6-bromo-8-chloro-3-ethyl-2-(1-(4-methyl-1,4-diazepan-1-yl)butyl)quinazolin-4(3H)-one] | > 5000 | 500 to 1000 |
| CCCC(c1nc2ccc(F)cc2c(=O)n1CC(C)C)N1CCCN(CC)CC1 (centres unmarked) [Example 50, 2-(1-(4-ethyl-1,4-diazepan-1-yl)butyl)-6-fluoro-3-isobutylquinazolin-4(3H)-one] | < 500 | < 500 |
| CCCC(c1nc2ccc(Br)c(F)c2c(=O)n1CC)N1CCCN(CC)CC1 (centres unmarked) [Example 52, 6-bromo-3-ethyl-2-(1-(4-ethyl-1,4-diazepan-1-yl)butyl)-5-fluoroquinazolin-4(3H)-one] | 500 to 5000 | < 500 |
| CCCC(c1nc2cccc(Br)c2c(=O)n1CC)N1CCCN(C)CC1 (centres unmarked) [Example 53, 5-bromo-3-ethyl-2-(1-(4-methyl-1,4-diazepan-1-yl)butyl)quinazolin-4(3H)-one] | 500 to 5000 | < 500 |
| CCCC(c1nc2ccc(Br)cc2c(=O)n1CC(C)C)N1CCCN(C)CC1 (centres unmarked) [Example 54, 6-bromo-3-isobutyl-2-(1-(4-methyl-1,4-diazepan-1-yl)butyl)quinazolin-4(3H)-one] | < 500 | 500 to 1000 |
| CCCC(c1nc2c(F)cc(Br)cc2c(=O)n1CC)N1CCCNCC1 (centres unmarked) [Example 55, 2-(1-(1,4-diazepan-1-yl)butyl)-6-bromo-3-ethyl-8-fluoroquinazolin-4(3H)-one] | 500 to 5000 | > 1000 |
| CCCC(c1nc2ccc(Br)c(Cl)c2c(=O)n1CC)N1CCCN(C)CC1 (centres unmarked) [Example 56, 6-bromo-5-chloro-3-ethyl-2-(1-(4-methyl-1,4-diazepan-1-yl)butyl)quinazolin-4(3H)-one] | 500 to 5000 | < 500 |
| CCCC(c1nc2c(F)cc(Br)cc2c(=O)n1CC)N1CCCN(CC)CC1 (centres unmarked) [Example 57, 6-bromo-3-ethyl-2-(1-(4-ethyl-1,4-diazepan-1-yl)butyl)-8-fluoroquinazolin-4(3H)-one] | 500 to 5000 | 500 to 1000 |
| CCCC(c1nc2ccc(Br)cc2c(=O)n1CC(C)C)N1CCCN(CC)CC1 (centres unmarked) [Example 58, 6-bromo-2-(1-(4-ethyl-1,4-diazepan-1-yl)butyl)-3-isobutylquinazolin-4(3H)-one] | < 500 | < 500 |
| CCCC(c1nc2ccc(Br)c(F)c2c(=O)n1CC)N1CCCNCC1 (centres unmarked) [Example 59, 2-(1-(1,4-diazepan-1-yl)butyl)-6-bromo-3-ethyl-5-fluoroquinazolin-4(3H)-one] | < 500 | > 1000 |
| CCCC(c1nc2c(C)cc(Br)cc2c(=O)n1CC)N1CCCN(CC)CC1 (centres unmarked) [Example 60, 6-bromo-3-ethyl-2-(1-(4-ethyl-1,4-diazepan-1-yl)butyl)-8-methylquinazolin-4(3H)-one] | > 5000 | < 500 |
| CCCC(c1nc2cc(F)c(Br)cc2c(=O)n1CCC)N1CCCN(CC)CC1 (centres unmarked) [Example 61, 6-bromo-2-(1-(4-ethyl-1,4-diazepan-1-yl)butyl)-7-fluoro-3-propylquinazolin-4(3H)-one] | < 500 | < 500 |
| CCCC(c1nc2cc(Br)c(F)cc2c(=O)n1CCC)N1CCCN(CC)CC1 (centres unmarked) [Example 62, 7-bromo-2-(1-(4-ethyl-1,4-diazepan-1-yl)butyl)-6-fluoro-3-propylquinazolin-4(3H)-one] | < 500 | < 500 |
| CCCC(c1nc2cc(Br)c(F)cc2c(=O)n1CC)N1CCCN(CC)CC1 (centres unmarked) [Example 63, 7-bromo-3-ethyl-2-(1-(4-ethyl-1,4-diazepan-1-yl)butyl)-6-fluoroquinazolin-4(3H)-one] | < 500 | < 500 |
| CCCC(c1nc2c(Cl)cc(F)cc2c(=O)n1CC)N1CCCN(C)CC1 (centres unmarked) [Example 64, 8-chloro-3-ethyl-6-fluoro-2-(1-(4-methyl-1,4-diazepan-1-yl)butyl)quinazolin-4(3H)-one] | > 5000 | > 1000 |
| CCCC(c1nc2c(Cl)cc(F)cc2c(=O)n1CC)N1CCCN(CC)CC1 (centres unmarked) [Example 65, 8-chloro-3-ethyl-2-(1-(4-ethyl-1,4-diazepan-1-yl)butyl)-6-fluoroquinazolin-4(3H)-one] | > 5000 | > 1000 |
| CCC[C@H](c1nc2ccc(Br)cc2c(=O)n1CC)N1CCN2CCC1CC2 [Example 66, (R)-2-(1-(1,4-diazabicyclo[3.2.2]nonan-4-yl)butyl)-6-bromo-3-ethylquinazolin-4(3H)-one] | > 5000 | > 1000 |
| CCC[C@H](c1nc2ccc(Br)cc2c(=O)n1CCC)N1CCNC[C@H](C)C1 [Example 67, 6-bromo-2-((R)-1-((S)-6-methyl-1,4-diazepan-1-yl)butyl)-3-propylquinazolin-4(3H)-one] | < 500 | > 1000 |
| CCC[C@H](c1nc2ccc(Br)cc2c(=O)n1CCC)N1CCNC[C@@H](C)C1 [Example 68, 6-bromo-2-((R)-1-((R)-6-methyl-1,4-diazepan-1-yl)butyl)-3-propylquinazolin-4(3H)-one] | < 500 | > 1000 |
| CCC[C@@H](c1nc2ccc(Br)cc2c(=O)n1CCC)N1CCNC[C@H](C)C1 [Example 69, 6-bromo-2-((S)-1-((S)-6-methyl-1,4-diazepan-1-yl)butyl)-3-propylquinazolin-4(3H)-one] | 500 to 5000 | > 1000 |
| CCC[C@@H](c1nc2ccc(Br)cc2c(=O)n1CCC)N1CCNC[C@@H](C)C1 [Example 70, 6-bromo-2-((S)-1-((R)-6-methyl-1,4-diazepan-1-yl)butyl)-3-propylquinazolin-4(3H)-one] | > 5000 | > 1000 |
| CCCC(c1nc2c(Cl)cc(F)cc2c(=O)n1CC)N1CCCNCC1 (centres unmarked) [Example 71, 2-(1-(1,4-diazepan-1-yl)butyl)-8-chloro-3-ethyl-6-fluoroquinazolin-4(3H)-one] | > 5000 | > 1000 |
| CCCC(c1nc2ccc(F)c(F)c2c(=O)n1CC)N1CCCN(C)CC1 (centres unmarked) [Example 72, 3-ethyl-5,6-difluoro-2-(1-(4-methyl-1,4-diazepan-1-yl)butyl)quinazolin-4(3H)-one] | < 500 | < 500 |
